Our source for the Kb values is patent US8507533B2, “Glucagon receptor modulators” (Pfizer Inc., priority 2011, dated 2013).

In the experiment the target is human glucagon receptor (Homo sapiens (Human), UniProt P47871). Briefly: Glucagon cAMP Assay (Cisbio cAMP detection). The format is cell-based. To be noted: CHOK1 cells stably transfected with the human glucagon receptor; block of glucagon induced cAMP production; Kb by modified Cheng-Prusoff equation. Here is the method: The Cisbio cAMP detection assay is used to determine the ability of punitive glucagon antagonist to block glucagon induced cAMP production. Potential glucagon antagonists are re-suspended and diluted in 100% DMSO. Prior to use in the Glucagon cAMP assay 100×DMSO compound stocks are diluted 20× with DMEM-F12 media (Invitrogen) containing either 0.1% or 4% BSA. […] 2 μls of 5% DMSO or known glucagon antagonist are added to each plate to define the assay window. CHOK1 cells stably transfected with the human glucagon receptor are removed from culture flasks with cell dissociation buffer. Cell pellets are re-suspended, at a concentration of 8.3e^5 cells/ml in DMEM-F12 with or without 4% BSA and 200 uM IBMX. 6 μls of cell suspensions are added to the assay plates. Plates are incubated for 20 min at room temperature prior to the addition of a 100 μM challenge dose of glucagon. On a separate plate glucagon dose response curves are run to determine the EC50 of glucagon. After a 30 min room temperature incubation the reaction is terminated by the addition of lysis buffer containing the cAMP detection reagents. Plates are incubated for an additional 60 min at room temperature prior to being read on the Perkin Elmer fluorescent plate reader. Raw is converted to nM of cAMP produced based on a cAMP standard curve. Converted data is then analyzed using the Pfizer data analysis program. IC50 values are determined from the generated sigmoidal dose response curves. Kb values are calculated using a modified Cheng-Prusoff equation. N is the number of times the compound was assayed.
Chain of human glucagon receptor (P47871 26-477): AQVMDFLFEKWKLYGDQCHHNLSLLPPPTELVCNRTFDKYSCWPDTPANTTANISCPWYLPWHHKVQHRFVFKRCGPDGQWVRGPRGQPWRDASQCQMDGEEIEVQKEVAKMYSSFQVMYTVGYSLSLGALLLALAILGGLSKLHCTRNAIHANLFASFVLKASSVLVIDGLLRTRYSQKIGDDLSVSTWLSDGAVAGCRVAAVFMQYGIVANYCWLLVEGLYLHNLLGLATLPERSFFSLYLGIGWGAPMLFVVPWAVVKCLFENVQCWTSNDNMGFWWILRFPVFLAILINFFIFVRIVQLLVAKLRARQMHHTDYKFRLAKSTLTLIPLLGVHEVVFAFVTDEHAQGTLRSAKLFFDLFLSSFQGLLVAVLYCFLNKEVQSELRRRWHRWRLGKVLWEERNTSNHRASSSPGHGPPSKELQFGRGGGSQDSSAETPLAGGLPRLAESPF
(Cyclic AMP is a second messenger, typically raised through Gs and lowered through Gi signalling.)
For the molecule `CCCC(Nc1ccc(-n2cnc(C(F)(F)F)c2)c(C)c1)c1ccc(C(=O)NCCC(=O)O)cc1` (racemic) [Example 1, (+/−)-3-(4-(1-(3-methyl-4-(4-(trifluoromethyl)-1H-imidazol-1-yl)phenylamino)butyl)benzamido)propanoic acid], the Kb was found to be 1500 nM.

Turning to `CC(C)CC(Oc1ccc(C(=O)NCCC(=O)O)cc1)c1ccc(-n2cnc(C(F)(F)F)c2)cc1` (racemic) [Example 2, (+/−)-3-(4-(3-methyl-1-(4-(4-(trifluoromethyl)-1H-imidazol-1-yl)phenyl)butoxy)benzamido)propanoic acid], the Kb was 5280 nM.

For the molecule `CCCC(Oc1ccc(-n2cc(C(F)(F)F)cn2)cc1)c1ccc(C(=O)NCCC(=O)O)cn1` (racemic) [Example 3, (+/−)-3-(6-(1-(4-(4-(trifluoromethyl)-1H-pyrazol-1-yl)phenoxy)butyl)nicotinamido)propanoic acid], the Kb amounted to 1820 nM.

The molecule `CC(C)CC(Cc1ccc(-n2cc(C(F)(F)F)cn2)cc1)c1ccc(C(=O)NCCC(=O)O)cc1` (racemic) [Example 4, (+/−)-3-(4-(4-methyl-1-(4-(4-(trifluoromethyl)-1H-pyrazol-1-yl)phenyl)pentan-2-yl)benzamido)propanoic acid] returned a Kb of 1270 nM.

With `O=C(O)CCNC(=O)c1ccc(C(Nc2ccc(-n3cnc(C(F)(F)F)c3)nc2)C2CCCC2)cc1` (racemic) [Example 8, (+/−)-3-(4-(cyclopentyl(6-(4-(trifluoromethyl)-1H-imidazol-1-yl)pyridine-3-ylamino)methyl)benzamido)propanoic acid], the Kb worked out at 155 nM.

Take `CCCC(Nc1ccc(-n2cnc(C(F)(F)F)c2)nc1)c1ccc(C(=O)NCCC(=O)O)cc1` (racemic) [Example 9, (+/−)-3-(4-(1-(6-(4-(trifluoromethyl)-1H-imidazol-1-yl)pyridine-3-ylamino)butyl)benzamido)propanoic acid]: the Kb was found to be 572 nM.

For the molecule `CCCC(Oc1ccc(-n2cc(SC)cn2)cc1)c1ccc(C(=O)NCCC(=O)O)cc1` (racemic) [Example 20, (+/−)-3-(4-(1-(4-(4-(methylthio)-1H-pyrazol-1-yl)phenoxy)butyl)benzamido)propanoic acid], the Kb came to 800 nM.

`CCCC(Oc1ccc(-n2ccc(C(C)(C)C)n2)cc1)c1ccc(C(=O)NCCC(=O)O)cc1` (racemic) [Example 21, (+/−)-3-(4-(1-(4-(3-tert-butyl-1-1H-pyrazol-1-yl)phenoxy)butyl)benzamido)propanoic acid] gave a Kb of 824 nM.

`CCCC(Oc1ccc(-n2cc(CC)c(C)n2)cc1)c1ccc(C(=O)NCCC(=O)O)cc1` (racemic) [Example 24, (+/−)-3-(4-(1-(4-(4-ethyl-3-methyl-1H-pyrazol-1-yl)phenoxy)butyl)benzamido)propanoic acid]: the Kb is 1030 nM.

Consider `CCCC(Oc1ccc(-n2nc(CC)cc2CC)cc1)c1ccc(C(=O)NCCC(=O)O)cc1` (racemic) [Example 25, (+/−)-3-(4-(1-(4-(3,5-diethyl-1H-pyrazol-1-yl)phenoxy)butyl)benzamido)propanoic acid], for which the Kb was 1120 nM.

With `CCCC(Oc1ccc(-n2ccc(C(C)C)n2)cc1)c1ccc(C(=O)NCCC(=O)O)cc1` (racemic) [Example 27, (+/−)-3-(4-(1-(4-(3-isopropyl-1H-pyrazol-1-yl)phenoxy)butyl)benzamido)propanoic acid], the Kb worked out at 1080 nM.

`CCCC(Oc1ccc(-n2ccc(C)n2)cc1)c1ccc(C(=O)NCCC(=O)O)cc1` (racemic) [Example 29, (+/−)-3-(4-(1-(4-(3-methyl-1H-pyrazol-1-yl)phenoxy)butyl)benzamido)propanoic acid] displayed a Kb of 1360 nM.

The molecule `CCCC(Oc1ccc(-n2nccn2)cc1)c1ccc(C(=O)NCCC(=O)O)cc1` (racemic) [Example 30, (+/−)-3-(4-(1-(4-(2H-1,2,3-triazol-2-yl)phenoxy)butyl)benzamido)propanoic acid] showed a Kb of 1410 nM.

`CCCC(Oc1ccc(-n2nc(C)cc2OCC)cc1)c1ccc(C(=O)NCCC(=O)O)cc1` (racemic) [Example 32, (+/−)-3-(4-(1-(4-(5-ethoxy-3-methyl-1H-pyrazol-1-yl)phenoxy)butyl)benzamido)propanoic acid] returned a Kb of 1590 nM.

As for `CCCC(Oc1ccc(-n2nc(C)cc2OC)cc1)c1ccc(C(=O)NCCC(=O)O)cc1` (racemic) [Example 33, (+/−)-3-(4-(1-(4-(5-methoxy-3-methyl-1H-pyrazol-1-yl)phenoxy)butyl)benzamido)propanoic acid], the Kb came out at 1560 nM.

`CCCCc1cn(-c2ccc(OC(CCC)c3ccc(C(=O)NCCC(=O)O)cc3)cc2)cn1` (racemic) [Example 34, (+/−)-3-(4-(1-(4-(4-butyl-1H-imidazol-1-yl)phenoxy)butyl)benzamido)propanoic acid] had a Kb of 1710 nM.

`CCCC(Oc1ccc(-n2c(C)c(C)c(C)c2C#N)cc1)c1ccc(C(=O)NCCC(=O)O)cc1` (racemic) [Example 35, (+/−)-3-(4-(1-(4-(2-cyano-3,4,5-trimethyl-1H-pyrrol-1-yl)phenoxy)butyl)benzamido)propanoic acid] displayed a Kb of 1790 nM.

`CCCC(Oc1ccc(-n2cc(C)c(C#N)c2C)cc1)c1ccc(C(=O)NCCC(=O)O)cc1` (racemic) [Example 36, (+/−)-3-(4-(1-(4-(3-cyano-2,4-dimethyl-1H-pyrrol-1-yl)phenoxy)butyl)benzamido)propanoic acid] came in with a Kb of 1820 nM.

Take `CCCC(Oc1ccc(-n2ccc(C)c2C#N)cc1)c1ccc(C(=O)NCCC(=O)O)cc1` (racemic) [Example 37, (+/−)-3-(4-(1-(4-(2-cyano-3-methyl-1H-pyrrol-1-yl)phenoxy)butyl)benzamido)propanoic acid]: the Kb stood at 1760 nM.

For the molecule `CCCc1ccn(-c2ccc(OC(CCC)c3ccc(C(=O)NCCC(=O)O)cn3)cc2)n1` (racemic) [Example 38, (+/−)-3-(6-(1-(4-(3-propyl-1H-pyrazol-1-yl)phenoxy)butyl)nicotinamido)propanoic acid], the Kb was 2130 nM.

Take `CCCC(Oc1ccc(-n2cc(C)c(C)n2)cc1)c1ccc(C(=O)NCCC(=O)O)cc1` (racemic) [Example 39, (+/−)-3-(4-(1-(4-(3,4-dimethyl-1H-pyrazol-1-yl)phenoxy)butyl)benzamido)propanoic acid]: the Kb was 2460 nM.

Take `CCCC(Oc1ccc(-n2ccn3nccc23)cc1)c1ccc(C(=O)NCCC(=O)O)cc1` (racemic) [Example 41, (+/−)-3-(4-(1-(4-(1H-imidazo[1,2-b]pyrazol-1-yl)phenoxy)butyl)benzamido)propanoic acid]: the Kb was found to be 2840 nM.

Molecule `CCCC(Oc1ccc(-n2ccc(CC)n2)cc1)c1ccc(C(=O)NCCC(=O)O)cc1` (racemic) [Example 42, (+/−)-3-(4-(1-(4-(3-ethyl-1H-pyrazol-1-yl)phenoxy)butyl)benzamido)propanoic acid] yielded a Kb of 2810 nM.

The molecule `CCCC(Oc1ccc(-n2cnc(Cl)c2C)cc1)c1ccc(C(=O)NCCC(=O)O)cc1` (racemic) [Example 43, (+/−)-3-(4-(1-(4-(4-chloro-5-methyl-1H-imidazol-1-yl)phenoxy)butyl)benzamido)propanoic acid] yielded a Kb of 2910 nM.

In turn, `CCCC(Oc1ccc(-n2cnc(CC)c2CC)cc1)c1ccc(C(=O)NCCC(=O)O)cc1` (racemic) [Example 44, (+/−)-3-(4-(1-(4-(4,5-diethyl-1H-imidazol-1-yl)phenoxy)butyl)benzamido)propanoic acid] gave a Kb of 3110 nM.

In the case of `CCCC(Oc1ccc(-n2nc(C)cc2C)cc1)c1ccc(C(=O)NCCC(=O)O)cc1` (racemic) [Example 45, (+/−)-3-(4-(1-(4-(3,5-dimethyl-1H-pyrazol-1-yl)phenoxy)butyl)benzamido)propanoic acid], the Kb came out at 3350 nM.

Molecule `CCCC(Oc1ccc(-n2cnc(C)n2)cc1)c1ccc(C(=O)NCCC(=O)O)cc1` (racemic) [Example 46, (+/−)-3-(4-(1-(4-(3-methyl-1H-1,2,4-triazol-1-yl)phenoxy)butyl)benzamido)propanoic acid] returned a Kb of 6890 nM.

Molecule `CCCC(Oc1ccc(-n2cncn2)cc1)c1ccc(C(=O)NCCC(=O)O)cc1` (racemic) [Example 47, (+/−)-3-(4-(1-(4-(1H-1,2,4-triazol-1-yl)phenoxy)butyl)benzamido)propanoic acid] yielded a Kb of 7810 nM.

In turn, `CCCCc1nccn1-c1ccc(OC(CCC)c2ccc(C(=O)NCCC(=O)O)cc2)cc1` (racemic) [Example 48, (+/−)-3-(4-(1-(4-(2-butyl-1H-imidazol-1-yl)phenoxy)butyl)benzamido)propanoic acid] gave a Kb of 8150 nM.

With `CCCC(Oc1ccc(-n2cnc(C)c2C)cc1)c1ccc(C(=O)NCCC(=O)O)cc1` (racemic) [Example 49, (+/−)-3-(4-(1-(4-(4,5-dimethyl-1H-imidazol-1-yl)phenoxy)butyl)benzamido)propanoic acid], the Kb was 10300 nM.

`CCCC(Oc1ccc(-c2cnn(CCC)c2)cc1)c1ccc(C(=O)NCCC(=O)O)cc1` (racemic) [Example 50, (+/−)-3-(4-(1-(4-(1-propyl-1H-pyrazol-4-yl)phenoxy)butyl)benzamido)propanoic acid] came in with a Kb of 1560 nM.
